Consider 1 compound from publication PMC8848308 (Bioorganic & medicinal chemistry letters, 2020).

This assay concerns Huh7 cells stably expressing DENV-3 replicon (strain D3MY05-34640). Put plainly: Luciferase reporter replicon assay, DENV-3. The settings on record: on moving the 3-F group to the ortho position (compared with the 3-F analogue). In kind it is cell-based.

Turning to `O=C1CC2(C(=O)Nc3ccc(Cl)cc32)c2cnn(Cc3ccc(Cl)c(F)c3)c2N1` (stereo not shown) [Compound 22, 5-Chloro-1’-(4-chloro-3-fluorobenzyl)-5’,7’-dihydrospiro[indoline-3,4’-pyrazolo[3,4-b]pyridine]-2,6’(1’H)-dione], the “loss of potency against DENV-3” value stood at 20 fold.
